# Tested on: rice blast fungi
# Assay type: in vivo, Pyricularia grisea
row,Molecule,Inhibiting Ratio (%) (at 250 ppm)
1,"CCCCc1ccc(N=c2scc(CC(=O)Nc3ccc(Cl)cc3)n2C)cc1.Cl [Compound 124, 2-[4-(n-butyl)phenylimino]-3-methyl-4-[N-(4-chlorophenyl)carbamoylmethyl]-1,3-thiazol-4-ine hydrochloride]",93%
2,"Cc1ccc(NC(=O)Cc2csc(=Nc3ccc(C#N)cc3)n2C)cc1Cl.Cl [Compound 228, 2-(4-cyanophenylimino)-3-methyl-4-[N-(3-chloro-4-methylphenyl)carbamoylmethyl]-4-thiazoline hydrochloride]",97%
3,"Cl.Cn1c(CC(=O)Nc2ccc(Cl)cc2)csc1=Nc1ccccc1-c1ccccc1 [Compound 131, 2-(2-phenylphenylimino)-3-methyl-4-[N-(4-chlorophenyl)carbamoylmethyl]-1,3-thiazol-4-ine hydrochloride]",96%
4,"Br.Cc1ccc(NC(=O)Cc2csc(=Nc3cccc([N+](=O)[O-])c3)n2C)cc1 [Compound 15, 2-(3-nitrophenylimino)-3-methyl-4-[N-(4-methylphenyl)carbamoylmethyl]-1,3-thiazol-4-ine hydrobromide]",91%
5,"2-(3-chloro-4-fluorophenylimino)-3-methyl-4-[N-(methoxyphenyl)carbamoylmethyl]-1,3-thiazol-4-ine [Compound 336]",96%
6,"Cl.Cn1c(CC(=O)Nc2ccccc2F)csc1=Nc1cccc(Br)c1 [Compound 153, 2-(3-bromophenylimino)-3-methyl-4-[N-(2-fluorophenyl)carbamoylmethyl]-1,3-thiazol-4-ine hydrochloride]",99%
7,"Cc1ccc(NC(=O)Cc2csc(=Nc3cc(OC(C)C)c(Cl)cc3F)n2C)cc1.Cl [Compound 168, 2-(4-chloro-5-isopropoxy-2-fluorophenylimino)-3-methyl-4-[N-(4-methylphenyl)carbamoylmethyl-]-1,3-thiazol-4-ine hydrochloride]",92%
8,"Br.Cc1ccc(N=c2scc(CC(=O)Nc3cccc(Cl)c3)n2C)c(F)c1 [Compound 67, 2-(2-fluoro-4-methylphenylimino)-3-methyl-4-[N-(3-chlorophenyl)carbamoylmethyl]-1,3-thiazol-4-ine hydrobromide]",100%
9,"CCCCc1ccc(N=c2scc(CC(=O)Nc3ccc(OC)cc3)n2C)cc1 [Compound 334, 2-[4-(n-butyl)phenylimino]-3-methyl-4-[N-(4-methoxyphenyl)carbamoylmethyl]-1,3-thiazol-4-ine]",96%
10,"Cl.Cn1c(CC(=O)Nc2ccc(Cl)cc2)csc1=Nc1ccc(Br)cc1 [Compound 130, 2-(4-bromophenylimino)-3-methyl-4-[N-(4-chlorophenyl)carbamoylmethyl]-1,3-thiazol-4-ine hydrochloride]",98%
11,"Br.CCCCc1ccc(N=c2scc(CC(=O)Nc3cccc(Cl)c3)n2C)cc1 [Compound 56, 2-[4-(n-butyl)phenylimino]-3-methyl-4-[N-(3-chlorophenyl)carbamoylmethyl]-1,3-thiazol-4-ine hydrobromide]",96%
12,"Br.Cn1c(CC(=O)Nc2cccc(Cl)c2)csc1=Nc1ccc(OC(F)(F)F)cc1 [Compound 58, 2-(4-trifluoromethoxyphenylimino)-3-methyl-4-[N-(3-chlorophenyl)carbamoylmethyl]-1,3-thiazol-4-ine hydrobromide]",96%
13,"Br.Cc1ccc(NC(=O)Cc2csc(=Nc3cc(Cl)cc(Cl)c3)n2C)cc1 [Compound 4, 2-(3,5-dichlorophenylimino)-3-methyl-4-[N-(4-methylphenyl)carbamoylmethyl]-1,3-thiazol-4-ine hydrobromide]",83%
14,"Br.Cc1ccc(NC(=O)Cc2csc(=Nc3cc(C(F)(F)F)cc(C(F)(F)F)c3)n2C)cc1 [Compound 54, 2-(3,5-ditrifluoromethylphenylimino)-3-methyl-4-[N-(4-methylphenyl)carbamoylmethyl]-1,3-thiazol-4-ine hydrobromide]",96%
15,"Br.CCCCc1ccc(N=c2scc(CC(=O)Nc3ccc(C)cc3)n2C)cc1 [Compound 30, 2-[4-(n-butyl)phenylimino]-3-methyl-4-[N-(4-methylphenyl)carbamoylmethyl]-1,3-thiazol-4-ine hydrobromide]",100%
16,"Br.CC(C)Oc1ccc(N=c2scc(CC(=O)Nc3ccc(Cl)cc3)n2C)cc1 [Compound 314, 2-(4-isopropoxyphenylimino)-3-methyl-4-[N-(4-chlorophenyl)carbamoylmethyl]-1,3-thiazol-4-ine hydrobromide]",100%
17,"Cl.O=C(Cc1csc(=Nc2ccc(F)cc2F)n1C1CC1)Nc1ccc(Br)cc1 [Compound 258, 2-(2,4-difluorophenylimino)-3-cyclopropyl-4-[N-(4-bromophenyl)carbamoylmethyl]-1,3-thiazol-4-ine hydrochloride]",91%
18,"Br.Cc1ccc(NC(=O)Cc2csc(=Nc3cccc(C(F)(F)F)c3)n2C)cc1 [Compound 6, 2-(3-trifluoromethylphenylimino)-3-methyl-4-[N-(4-methylphenyl)carbamoylmethyl]-1,3-thiazol-4-ine hydrobromide]",99%

row,Molecule,Inhibiting Ratio (%) (at 250 ppm)
1,"Br.COc1ccccc1N=c1scc(CC(=O)Nc2cccc(C(F)(F)F)c2)n1C [Compound 65, 2-(2-methoxyphenylimino)-3-methyl-4-[N-(3-trifluoromethylphenyl)carbamoylmethyl]-1,3-thiazol-4-ine hydrobromide]",98%
2,"Cl.Cn1c(CC(=O)Nc2ccccc2F)csc1=Nc1ccc(Cl)cc1F [Compound 150, 2-(4-chloro-2-fluorophenylimino)-3-methyl-4-[N-(2-fluorophenyl)carbamoylmethyl]-1,3-thiazol-4-ine hydrochloride]",96%
3,"Cc1ccc(NC(=O)Cc2csc(=Nc3ccc(F)cc3F)n2C)cc1 [Compound 332, 2-(2,4-difluorophenylimino)-3-methyl-4-[N-(4-methylphenyl)carbamoylmethyl]-1,3-thiazol-4-ine]",100%
4,"Br.Cn1c(CC(=O)Nc2ccc(Cl)cc2)csc1=Nc1ccccc1 [Compound 305, 2-phenylimino-3-methyl-4-[N-(4-chlorophenyl)carbamoylmethyl]-1,3-thiazol-4-ine hydrobromide]",100%
5,"Cl.Cn1c(CC(=O)Nc2ccccc2F)csc1=Nc1cccc(Cl)c1 [Compound 90, 2-(3-chlorophenylimino)-3-methyl-4-[N-(2-fluoro)phenylcarbamoylmethyl]-1,3-thiazol-4-ine hydrochloride]",91%
6,"CC(C)Oc1cc(N=c2scc(CC(=O)Nc3ccc(Cl)cc3)n2C)c(F)cc1Cl.Cl [Compound 161, 2-(4-chloro-5-isopropoxy-2-fluorophenylimino)-3-methyl-4-[N-(4-chlorophenyl)carbamoylmethyl]-1,3-thiazol-4-ine hydrochloride]",86%
7,"Cl.Cn1c(CC(=O)Nc2ccc(Br)cc2)csc1=Nc1ccc(F)cc1F [Compound 133, 2-(2,4-difluorophenylimino)-3-methyl-4-[N-(4-bromophenyl)carbamoylmethyl]-1,3-thiazol-4-ine hydrochloride]",99%
8,"COc1ccc(NC(=O)Cc2csc(=Nc3ccc(OC(F)(F)F)cc3)n2C)cc1.Cl [Compound 209, 2-(4-trifluoromethoxyphenylimino)-3-methyl-4-[N-(4-methoxyphenyl)carbamoylmethyl]-1,3-thiazol-4-ine hydrochloride]",97%
9,"Cl.Cn1c(CC(=O)Nc2ccc(Br)cc2)csc1=Nc1cccc(Cl)c1F [Compound 134, 2-(3-chloro-2-fluorophenylimino)-3-methyl-4-[N-(4-bromophenyl)carbamoylmethyl]-1,3-thiazol-4-ine hydrochloride]",98%
10,"Br.Cc1ccccc1NC(=O)Cc1csc(=Nc2ccc(C#N)cc2)n1C [Compound 324, 2-(4-cyanophenylimino)-3-methyl-4-[N-(2-methylphenyl)carbamoylmethyl]1,3-thiazol-4-ine hydrobromide]",90%
11,"Br.Cc1ccc(NC(=O)Cc2csc(=Nc3ccc(C)c(Cl)c3)n2C)cc1 [Compound 35, 2-(3-chloro-4-methylphenylimino)-3-methyl-4[N-(4-methylphenyl)carbamoylmethyl]-1,3-thiazol-4-ine hydrobromide]",100%
12,"COc1ccc(NC(=O)Cc2csc(=Nc3cc(Cl)cc(Cl)c3)n2C)cc1.Cl [Compound 102, 2-(3,5-dichlorophenylimino)-3-methyl-4-[N-(4-methoxyphenyl)carbamoylmethyl]-1,3-thiazol-4-ine hydrochloride]",93%
13,"Br.Cn1c(CC(=O)Nc2ccccc2)csc1=Nc1ccc(Cl)c(C(F)(F)F)c1 [Compound 37, 2-(4-chloro-3-trifluoromethylphenylimino)-3-methyl-4-(N-phenylcarbamoylmethyl)-1,3-thiazol-4-ine hydrobromide]",100%
14,"CC(C)Oc1cc(N=c2scc(CC(=O)Nc3ccccc3F)n2C)c(F)cc1Cl.Cl [Compound 151, 2-(4-chloro-2-fluoro-5-isopropoxyphenylimino)-3-methyl-4-[N-(2-fluorophenyl)carbamoylmethyl]-1,3-thiazol-4-ine hydrochloride]",96%
15,"COc1ccc(NC(=O)Cc2csc(=Nc3ccc(Cl)cc3)n2C)cc1.Cl [Compound 104, 2-(4-chlorophenylimino)-3-methyl-4-[N-(4-methoxyphenyl)carbamoylmethyl]-1,3-thiazol-4-ine hydrochloride]",93%
16,"CCCCc1ccc(N=c2scc(CC(=O)Nc3ccc(Br)cc3)n2C)cc1.Cl [Compound 147, 2-[4-(n-butyl)phenylimino]-3-methyl-4-[N-(4-bromophenyl)carbamoylmethyl]-1,3-thiazol-4-ine hydrochloride]",96%
17,"Cc1cc(Br)ccc1N=c1scc(CC(=O)Nc2ccc(Br)cc2)n1C.Cl [Compound 142, 2-(4-bromo-2-methylphenylimino)-3-methyl-4-[N-(4-bromophenyl)carbamoylmethyl]-1,3-thiazol-4-ine hydrochloride]",98%

# Reference: US6921770B2 (priority 2000, dated 2005)
